From article PMC12775124, “CUL4A-DDB1-DCAF10 is an N-recognin for N-terminally acetylated Src kinases” (Nature Communications, 2026)

Tested on: ZYG11B
Assay: Peptide pull-down with quantitative MS, HeLa lysate, ZYG11B
Assay type: binding, human (HeLa)
Details: Nt-Ac vs Nt-free peptides
Experimental: Biotinylated 10-mer Nt-peptides (Nt-free, Nt-acetylated, and, where indicated, Nt-myristoylated; sequences in Supplementary Table 1) were synthesized with a C-terminal Lys3 spacer and biotin, immobilized on magnetic streptavidin beads, and incubated with HeLa or mouse liver lysates. After standardized washes, bound proteins were on-bead reduced/alkylated, digested with LysC/trypsin, desalted, and analysed by LC-MS in DIA mode (Orbitrap Exploris 480) as described previously. Variants included endogenous Nt-sequences, swap and mutant (Ala-Ala-Ala or Nt-amino acids) peptides, and pairwise comparisons of conditions of interest. Full buffer compositions, bead loading, wash schemes, and MS parameters are provided in the Supplementary Methods.
203 Supplementary Methods
205 Peptide sequences are listed in Supplementary Table 1. Peptide pull-downs were
Briefly, magnetic streptavidin beads (DynabeadsTM
Beads were then washed three times with PBS. After
210 washing, 1 mg of HeLa lysates or 2 mg of liver lysates was taken, and lysis buffer (75
Lysates were incubated with streptavidin
HeLa pull-downs were washed twice with lysis buffer and twice
Liver pulldowns were washed twice with cold low salt buffer (50 mM
220 individually ventilated cages under a 12-h light/dark cycle and were provided with sterile
All procedures were performed
No animal procedures were performed specifically for this […]

GAPATRRCVEKK [Nt-free TMEM97, Nt-peptide of TMEM97, Nt-free]
ZYG11B binding (in words): ZYG11B binding only to the Nt-free peptide of TMEM97
